One experiment deals with K. pneumoniae 10031. Put plainly: In vitro antibacterial activity (MIC), K. pneumoniae 10031. Conditions: Klebsiella pneumoniae, 10031, 18 h.
The subject of another experiment is P. vulgaris 6896. In words: In vitro antibacterial activity (MIC), P. vulgaris 6896. Conditions: Proteus vulgaris, 6896, 18 h.
The subject of another experiment is E. coli 9637. In words: In vitro antibacterial activity (MIC), E. coli 9637. Particulars: Escherichia coli, 9637, 18 h.
The subject of another experiment is S. paratyphi 11737. Put plainly: In vitro antibacterial activity (MIC), S. paratyphi 11737. It counts as cell-based. Particulars: Salmonella enterica, 18 h.
The subject of a further experiment is N. catarrhalis 8193. Put plainly: In vitro antibacterial activity (MIC), N. catarrhalis 8193. Conditions: 18 h.
The subject of a further experiment is S. aureus Smith. In words: In vitro antibacterial activity (MIC), S. aureus Smith. Conditions: Staphylococcus aureus, 18 h.
In another experiment the test system is S. aureus 53-180. Put plainly: In vitro antibacterial activity (MIC), S. aureus 53-180. Particulars: Staphylococcus aureus, 53180, 18 h.

Values after ≈ are worked out from the molar mass of the structure shown.

For the molecule `Cc1cc2c3c(N)nc(N)nc3ccc2n1C` [Example 99], the minimum inhibitory concentration (MIC) with K. pneumoniae 10031 is 0.244 µg/mL (≈ 1.07 µM); against P. vulgaris 6896, 0.976 µg/mL (≈ 4.29 µM); against E. coli 9637, 0.244 µg/mL (≈ 1.07 µM); in the experiment on S. paratyphi 11737 it was 1.95 µg/mL (≈ 8.58 µM); against N. catarrhalis 8193 it was 0.061 µg/mL (≈ 0.268 µM); in the experiment with S. aureus Smith it was 31.3 µg/mL (≈ 138 µM). In addition, it took 31.3 µg/mL (≈ 138 µM) to inhibit growth in the experiment on S. aureus 53-180 (MIC).

`Nc1nc(N)c2c(ccc3c2ccn3Cc2ccc(C(=O)[O-])cc2)n1.[Na+]` [Example 68, 7-(4-Carboxybenzyl)-7H-pyrrolo[3,2-f]-quinazoline-1,3-diamine, sodium salt]: the MIC against K. pneumoniae 10031 is over 250 µg/mL; in the experiment on P. vulgaris 6896, 250 µg/mL; in the experiment with E. coli 9637, over 250 µg/mL; with S. paratyphi 11737, over 250 µg/mL; in the experiment on N. catarrhalis 8193, 62.5 µg/mL; against S. aureus Smith it was 250 µg/mL. In the experiment on S. aureus 53-180, 250 µg/mL was the least that counted as inhibitory (MIC).

For `Nc1nc(N)c2c(ccc3c2ccn3-c2ncccn2)n1` [Example 84], the minimum inhibitory concentration (MIC) was 0.976 µg/mL (≈ 3.52 µM) with K. pneumoniae 10031; over 250 µg/mL against P. vulgaris 6896; 7.81 µg/mL (≈ 28.2 µM) against E. coli 9637; over 250 µg/mL in the experiment on S. paratyphi 11737; 0.061 µg/mL (≈ 0.22 µM) in the experiment on N. catarrhalis 8193; 15.6 µg/mL (≈ 56.3 µM) in the experiment on S. aureus Smith. Further, the MIC against S. aureus 53-180 was determined as 3.9 µg/mL (≈ 14.1 µM).

Regarding `Nc1nc(N)c2c(ccc3c2ccn3-c2cc(-c3ccccc3)nc3ccccc23)n1` [Example 95], the MIC is 250 µg/mL (≈ 621 µM) in the experiment on K. pneumoniae 10031; over 250 µg/mL with P. vulgaris 6896; 250 µg/mL (≈ 621 µM) with E. coli 9637; over 250 µg/mL against S. paratyphi 11737; 15.6 µg/mL (≈ 38.8 µM) against N. catarrhalis 8193; 31.3 µg/mL (≈ 77.8 µM) with S. aureus Smith. This molecule gave an MIC against S. aureus 53-180 of 7.81 µg/mL (≈ 19.4 µM).

Take `Cc1noc(C)c1Cn1ccc2c3c(N)nc(N)nc3ccc21` [Example 52]: the MIC in the experiment on K. pneumoniae 10031 was 0.244 µg/mL (≈ 0.791 µM); with P. vulgaris 6896, 3.9 µg/mL (≈ 12.6 µM); in the experiment on E. coli 9637, 0.976 µg/mL (≈ 3.17 µM); in the experiment on S. paratyphi 11737, 1.95 µg/mL (≈ 6.32 µM); with N. catarrhalis 8193, 0.0152 µg/mL (≈ 0.0493 µM); against S. aureus Smith it was 1.95 µg/mL (≈ 6.32 µM). The MIC against S. aureus 53-180 was determined as 0.976 µg/mL (≈ 3.17 µM).

Regarding `Nc1nc(N)c2c(ccc3c2ccn3-c2ccnc3cc(C(F)(F)F)ccc23)n1` [Example 90], the MIC came out at 0.244 µg/mL (≈ 0.619 µM) in the experiment with K. pneumoniae 10031; 250 µg/mL (≈ 634 µM) in the experiment with P. vulgaris 6896; 0.244 µg/mL (≈ 0.619 µM) against E. coli 9637; 31.3 µg/mL (≈ 79.4 µM) in the experiment on S. paratyphi 11737; 0.031 µg/mL (≈ 0.0786 µM) against N. catarrhalis 8193; 0.122 µg/mL (≈ 0.309 µM) with S. aureus Smith. For the same molecule, in the experiment with S. aureus 53-180, 0.031 µg/mL (≈ 0.0786 µM) was the least that counted as inhibitory (MIC).

As for `Cc1cc(-n2ccc3c4c(N)nc(N)nc4ccc32)nc2ccccc12` [Example 88], the MIC was 31.3 µg/mL (≈ 92 µM) with K. pneumoniae 10031; over 250 µg/mL against P. vulgaris 6896; 62.5 µg/mL (≈ 184 µM) with E. coli 9637; over 250 µg/mL in the experiment on S. paratyphi 11737; 0.061 µg/mL (≈ 0.179 µM) against N. catarrhalis 8193; 62.5 µg/mL (≈ 184 µM) in the experiment on S. aureus Smith. The same molecule yielded an MIC in the experiment on S. aureus 53-180 of 31.3 µg/mL (≈ 92 µM).

On to `Nc1nc(N)c2c(ccc3c2ccn3CC=Cc2ccccc2)n1` [Example 57], for which the MIC against K. pneumoniae 10031 worked out at 0.488 µg/mL (≈ 1.55 µM); in the experiment on P. vulgaris 6896, 7.81 µg/mL (≈ 24.8 µM); in the experiment with E. coli 9637, 3.9 µg/mL (≈ 12.4 µM); against S. paratyphi 11737, 15.6 µg/mL (≈ 49.5 µM); with N. catarrhalis 8193 it was 0.122 µg/mL (≈ 0.387 µM); against S. aureus Smith, 1.95 µg/mL (≈ 6.18 µM). In addition, the lowest concentration to inhibit growth in the experiment with S. aureus 53-180 (MIC) was 0.976 µg/mL (≈ 3.09 µM).

Consider `N#Cc1ccccc1-n1ccc2c3c(N)nc(N)nc3ccc21` [Example 73], for which the MIC in the experiment on K. pneumoniae 10031 was found to be 0.0152 µg/mL (≈ 0.0506 µM); against P. vulgaris 6896, 0.488 µg/mL (≈ 1.62 µM); in the experiment on E. coli 9637, 0.122 µg/mL (≈ 0.406 µM); in the experiment with S. paratyphi 11737 it was 0.122 µg/mL (≈ 0.406 µM); against N. catarrhalis 8193, 0.0038 µg/mL (≈ 0.0127 µM); in the experiment with S. aureus Smith it was 0.031 µg/mL (≈ 0.103 µM). In addition, the MIC in the experiment with S. aureus 53-180 is 0.0152 µg/mL (≈ 0.0506 µM).

For `Nc1nc(N)c2c(ccc3c2ccn3Cc2csc3ccccc23)n1` [Example 46], the MIC was 15.6 µg/mL (≈ 45.2 µM) in the experiment with K. pneumoniae 10031; over 250 µg/mL with P. vulgaris 6896; 125 µg/mL (≈ 362 µM) in the experiment with E. coli 9637; over 250 µg/mL with S. paratyphi 11737; 1.95 µg/mL (≈ 5.65 µM) in the experiment with N. catarrhalis 8193; 31.3 µg/mL (≈ 90.6 µM) in the experiment with S. aureus Smith. For the same molecule, in the experiment on S. aureus 53-180, inhibition of growth (MIC) required 31.3 µg/mL (≈ 90.6 µM).

On to `Nc1nc(N)c2c(ccc3c2ccn3Cc2ccc3ccccc3c2Br)n1` [Example 60], for which the MIC with K. pneumoniae 10031 was 15.6 µg/mL (≈ 37.3 µM); in the experiment with P. vulgaris 6896, over 250 µg/mL; against E. coli 9637, over 250 µg/mL; against S. paratyphi 11737, over 250 µg/mL; against N. catarrhalis 8193, 0.488 µg/mL (≈ 1.17 µM); in the experiment on S. aureus Smith, 31.3 µg/mL (≈ 74.8 µM). The minimum inhibitory concentration (MIC) in the experiment with S. aureus 53-180 is 15.6 µg/mL (≈ 37.3 µM).

Turning to `Nc1nc(N)c2c(ccc3c2ccn3-c2ccc([N+](=O)[O-])cc2[N+](=O)[O-])n1` [Example 78], the MIC was 0.031 µg/mL (≈ 0.0849 µM) against K. pneumoniae 10031; over 250 µg/mL in the experiment with P. vulgaris 6896; 3.9 µg/mL (≈ 10.7 µM) with E. coli 9637; over 250 µg/mL in the experiment on S. paratyphi 11737; 0.0019 µg/mL (≈ 0.0052 µM) with N. catarrhalis 8193; 0.0076 µg/mL (≈ 0.0208 µM) with S. aureus Smith. Moreover, the lowest concentration to inhibit growth in the experiment on S. aureus 53-180 (MIC) was 0.0076 µg/mL (≈ 0.0208 µM).

`Nc1nc(N)c2c(ccc3c2ccn3-c2ccnc3ccccc23)n1` [Example 87]: the MIC in the experiment with K. pneumoniae 10031 came out at 0.031 µg/mL (≈ 0.095 µM); with P. vulgaris 6896, 1.95 µg/mL (≈ 5.97 µM); with E. coli 9637, 0.488 µg/mL (≈ 1.5 µM); in the experiment on S. paratyphi 11737 it was 0.976 µg/mL (≈ 2.99 µM); in the experiment on N. catarrhalis 8193, 0.031 µg/mL (≈ 0.095 µM); against S. aureus Smith, 0.031 µg/mL (≈ 0.095 µM). The same molecule returned a minimum inhibitory concentration (MIC) in the experiment on S. aureus 53-180 of 0.0152 µg/mL (≈ 0.0466 µM).

As to `Nc1nc(N)c2c(ccc3[nH]c(-c4ccccc4)cc32)n1` [Example 105, 8-Phenyl-7H-pyrrolo[3,2-f]-quinazoline-1,3-diamine], the MIC is 31.3 µg/mL (≈ 114 µM) in the experiment on K. pneumoniae 10031; over 250 µg/mL in the experiment with P. vulgaris 6896; 62.5 µg/mL (≈ 227 µM) in the experiment with E. coli 9637; 125 µg/mL (≈ 454 µM) against S. paratyphi 11737; 62.5 µg/mL (≈ 227 µM) in the experiment with N. catarrhalis 8193; 7.81 µg/mL (≈ 28.4 µM) in the experiment on S. aureus Smith. Moreover, the MIC with S. aureus 53-180 was 15.6 µg/mL (≈ 56.7 µM).

Broadly, the MIC is the smallest concentration in the dilution series that meets the test's criterion for growth inhibition. Read a high MIC as a less susceptible organism.

The record behind these values is US4118561A, “7-(Substituted)-7H-pyrrolo[3,2-f]quinazoline-1,3-diamines” (priority 1977, dated 1978).
